Assay: mn = molality of the nth substance listed, in mol/kg
Settings: Liquid, Vibrating tube method

[Br-].[Li+] [lithium bromide] + CCO
Settings | mass density [kg/m3]
293.15 K, 1024 kPa, m1 = 2.833 | 956.08
293.15 K, 1034 kPa, m1 = 0.9499 | 850.27
293.15 K, 5015 kPa, m1 = 3.368 | 986.33
293.15 K, 5029 kPa, m1 = 0.9499 | 853.2
293.15 K, 5201 kPa, m1 = 2.833 | 959.11
293.15 K, 10003 kPa, m1 = 0.2335 | 812.89
293.15 K, 10032 kPa, m1 = 2.833 | 962.5
293.15 K, 10041 kPa, m1 = 0.9499 | 856.81
293.15 K, 10061 kPa, m1 = 0.5972 | 835.46
293.15 K, 19924 kPa, m1 = 0.9499 | 863.69
293.15 K, 20003 kPa, m1 = 0.2335 | 820.16
293.15 K, 20038 kPa, m1 = 3.368 | 996.51
293.15 K, 29895 kPa, m1 = 0.9499 | 870.31
293.15 K, 29978 kPa, m1 = 3.368 | 1002.69
293.15 K, 29993 kPa, m1 = 0.5972 | 849.31
293.15 K, 39912 kPa, m1 = 0.5972 | 855.69
293.15 K, 39956 kPa, m1 = 0.2335 | 833.59
293.15 K, 39985 kPa, m1 = 2.833 | 981.35
293.15 K, 40003 kPa, m1 = 0.9499 | 876.7
293.15 K, 49936 kPa, m1 = 3.368 | 1014.01
293.15 K, 49993 kPa, m1 = 0.5972 | 861.83
293.15 K, 50002 kPa, m1 = 0.9499 | 882.7
293.15 K, 59924 kPa, m1 = 0.2335 | 845.57
293.15 K, 60001 kPa, m1 = 2.833 | 992.24
293.15 K, 60032 kPa, m1 = 0.9499 | 888.39
293.15 K, 70032 kPa, m1 = 2.833 | 997.31
293.15 K, 70102 kPa, m1 = 0.9499 | 893.78
293.15 K, 79914 kPa, m1 = 1.462 | 928.13
293.15 K, 79926 kPa, m1 = 0.2335 | 856.13
293.15 K, 79956 kPa, m1 = 0.9499 | 898.74
293.15 K, 79956 kPa, m1 = 2.833 | 1002.13
293.15 K, 80104 kPa, m1 = 3.368 | 1029.17
293.15 K, 89245 kPa, m1 = 0.9499 | 903.13
293.15 K, 89926 kPa, m1 = 0.5972 | 882.72
293.15 K, 89954 kPa, m1 = 0.2335 | 860.88
293.15 K, 89958 kPa, m1 = 2.833 | 1006.83
293.15 K, 89963 kPa, m1 = 1.462 | 932.84
293.15 K, 89989 kPa, m1 = 3.368 | 1033.84
293.15 K, 99824 kPa, m1 = 1.462 | 937.16
293.15 K, 99895 kPa, m1 = 3.368 | 1038.46
293.15 K, 99965 kPa, m1 = 0.9499 | 907.85
293.15 K, 99965 kPa, m1 = 2.833 | 1011.42
293.15 K, 99986 kPa, m1 = 0.2335 | 865.27
293.16 K, 1250 kPa, m1 = 3.368 | 983.6
293.16 K, 19905 kPa, m1 = 0.5972 | 842.47
293.16 K, 29938 kPa, m1 = 2.833 | 975.41
293.16 K, 39654 kPa, m1 = 3.368 | 1008.34
293.16 K, 69784 kPa, m1 = 0.2335 | 850.96
293.16 K, 99971 kPa, m1 = 0.5972 | 887.12
293.17 K, 1430 kPa, m1 = 2.272 | 926.33
293.17 K, 1504 kPa, m1 = 0.5972 | 829.09
293.17 K, 4902 kPa, m1 = 2.272 | 928.89
293.17 K, 4938 kPa, m1 = 0.5972 | 831.68
293.17 K, 10030 kPa, m1 = 2.272 | 932.58
293.17 K, 19789 kPa, m1 = 2.272 | 939.24
293.17 K, 29946 kPa, m1 = 2.272 | 945.75
293.17 K, 40161 kPa, m1 = 2.272 | 951.9
293.17 K, 49963 kPa, m1 = 2.272 | 957.45
293.17 K, 89964 kPa, m1 = 2.272 | 977.54
293.17 K, 99958 kPa, m1 = 2.272 | 982.14
293.18 K, 60025 kPa, m1 = 2.272 | 962.8
293.18 K, 69979 kPa, m1 = 2.272 | 967.88
293.19 K, 79838 kPa, m1 = 2.272 | 972.67
298.09 K, 1141 kPa, m1 = 0.5972 | 824.73
298.1 K, 99589 kPa, m1 = 2.272 | 978.52
298.11 K, 60144 kPa, m1 = 1.462 | 914.77
298.12 K, 39801 kPa, m1 = 1.462 | 902.81
298.12 K, 39933 kPa, m1 = 2.272 | 947.93
298.12 K, 49922 kPa, m1 = 1.462 | 908.93
298.12 K, 49993 kPa, m1 = 2.272 | 953.69
298.12 K, 60039 kPa, m1 = 2.272 | 959.15
298.12 K, 99737 kPa, m1 = 3.368 | 1034.98
298.13 K, 5308 kPa, m1 = 1.462 | 879.29
298.13 K, 59998 kPa, m1 = 0.5972 | 864.41
298.13 K, 69983 kPa, m1 = 2.272 | 964.25
298.13 K, 80661 kPa, m1 = 3.368 | 1025.85
298.13 K, 89925 kPa, m1 = 2.272 | 973.93
298.13 K, 89985 kPa, m1 = 3.368 | 1030.35
298.14 K, 5004 kPa, m1 = 2.833 | 954.84
298.14 K, 20004 kPa, m1 = 0.2335 | 816.39
298.14 K, 30021 kPa, m1 = 2.833 | 971.59
298.14 K, 70023 kPa, m1 = 2.833 | 993.85
298.14 K, 79924 kPa, m1 = 0.2335 | 853.09
298.15 K, 1023 kPa, m1 = 2.833 | 951.93
298.15 K, 1045 kPa, m1 = 0.9499 | 845.75
298.15 K, 1204 kPa, m1 = 0.2335 | 801.78
298.15 K, 5002 kPa, m1 = 0.2335 | 805.08
298.15 K, 5004 kPa, m1 = 0.9499 | 848.93
298.15 K, 5221 kPa, m1 = 0.5972 | 827.89
298.15 K, 10024 kPa, m1 = 0.9499 | 852.82
298.15 K, 10064 kPa, m1 = 0.2335 | 808.99
298.15 K, 19935 kPa, m1 = 2.833 | 965.15
298.15 K, 19956 kPa, m1 = 0.9499 | 860.13
298.15 K, 29124 kPa, m1 = 0.2335 | 822.86
298.15 K, 29945 kPa, m1 = 0.9499 | 866.97
298.15 K, 29950 kPa, m1 = 2.272 | 941.76
298.15 K, 29993 kPa, m1 = 0.5972 | 845.75
298.15 K, 29993 kPa, m1 = 1.462 | 896.53
298.15 K, 39784 kPa, m1 = 0.9499 | 873.28
298.15 K, 39830 kPa, m1 = 0.5972 | 852.23
298.15 K, 39845 kPa, m1 = 2.833 | 977.51
298.15 K, 49956 kPa, m1 = 0.2335 | 836.44
298.15 K, 49963 kPa, m1 = 0.5972 | 858.53
298.15 K, 50012 kPa, m1 = 0.9499 | 879.42
298.15 K, 59968 kPa, m1 = 2.833 | 988.68
